Measurements as given in US8906644B2, “Method for culture of hepatocytes” (The University of Tokyo, priority 2009, dated 2014).

Target: T1, drug transporter (MRP2) (Rattus norvegicus, UniProt Q63120)
T1 construct: endogenous in cells; host or cells: primary hepatocytes in collagen gel sandwich culture on a PDMS membrane device, with a polystyrene device for comparison
Experiment: Measurement of MRP2 activity with CDCF (Bile Excretion Index) in collagen gel sandwiched hepatocytes
Format: in vitro ADME
Conditions: Day 4 of culture, 5 μM CDCF, 5 minutes
Method: Using the collagen gel sandwiched hepatocytes that were cultured on the PDMS membrane culturing device prepared in Example 1 and forming bile canaliculi, the activity of a drug transporter (MRP2) was measured by incorporation of 5-(and-6)-carboxy-2′,7′-dichlorofluorescein (CDCF) as follows according to a Non-patent Document (Liu X et al., Am J Physiol, 1999, vol. 277, pp. 12-21). Further, hepatocytes cultured in a conventional polystyrene culturing device were used for comparison.
Ca/Mg(+) HBSS was prepared before use by mixing 50 mL of HBSS (Invitrogen, 14175-079), 500 μL of 14 g/L CaCl2 and 500 μL of 10 g/L MgCl2/6H2O together. In terms of the CDCF solution, a 5 μM CDCF solution was prepared before use by using 1 mM CDCF (in dimethyl sulfoxide: Molecular Probes, C-369) and Ca/Mg(+) HBSS, and the prepared solution was incubated in a water bath at 37° C. […]
Two hepatocyte cultures were prepared 4 days after the beginning of the culture (3 days after the deposition of the gel). […] A 100-μL aliquot was collected from each supernatant and subjected to measurement with a fluorescence microplate reader with excitation at 492 nm and fluorescence at 530 nm to quantify the amount of CDCF. […] The Bile Excretion Index (BEI) was calculated according to the following equation based on the fluorescent brightness per protein amount (Accumulation).

T1 sequence (Q63120 whole entry): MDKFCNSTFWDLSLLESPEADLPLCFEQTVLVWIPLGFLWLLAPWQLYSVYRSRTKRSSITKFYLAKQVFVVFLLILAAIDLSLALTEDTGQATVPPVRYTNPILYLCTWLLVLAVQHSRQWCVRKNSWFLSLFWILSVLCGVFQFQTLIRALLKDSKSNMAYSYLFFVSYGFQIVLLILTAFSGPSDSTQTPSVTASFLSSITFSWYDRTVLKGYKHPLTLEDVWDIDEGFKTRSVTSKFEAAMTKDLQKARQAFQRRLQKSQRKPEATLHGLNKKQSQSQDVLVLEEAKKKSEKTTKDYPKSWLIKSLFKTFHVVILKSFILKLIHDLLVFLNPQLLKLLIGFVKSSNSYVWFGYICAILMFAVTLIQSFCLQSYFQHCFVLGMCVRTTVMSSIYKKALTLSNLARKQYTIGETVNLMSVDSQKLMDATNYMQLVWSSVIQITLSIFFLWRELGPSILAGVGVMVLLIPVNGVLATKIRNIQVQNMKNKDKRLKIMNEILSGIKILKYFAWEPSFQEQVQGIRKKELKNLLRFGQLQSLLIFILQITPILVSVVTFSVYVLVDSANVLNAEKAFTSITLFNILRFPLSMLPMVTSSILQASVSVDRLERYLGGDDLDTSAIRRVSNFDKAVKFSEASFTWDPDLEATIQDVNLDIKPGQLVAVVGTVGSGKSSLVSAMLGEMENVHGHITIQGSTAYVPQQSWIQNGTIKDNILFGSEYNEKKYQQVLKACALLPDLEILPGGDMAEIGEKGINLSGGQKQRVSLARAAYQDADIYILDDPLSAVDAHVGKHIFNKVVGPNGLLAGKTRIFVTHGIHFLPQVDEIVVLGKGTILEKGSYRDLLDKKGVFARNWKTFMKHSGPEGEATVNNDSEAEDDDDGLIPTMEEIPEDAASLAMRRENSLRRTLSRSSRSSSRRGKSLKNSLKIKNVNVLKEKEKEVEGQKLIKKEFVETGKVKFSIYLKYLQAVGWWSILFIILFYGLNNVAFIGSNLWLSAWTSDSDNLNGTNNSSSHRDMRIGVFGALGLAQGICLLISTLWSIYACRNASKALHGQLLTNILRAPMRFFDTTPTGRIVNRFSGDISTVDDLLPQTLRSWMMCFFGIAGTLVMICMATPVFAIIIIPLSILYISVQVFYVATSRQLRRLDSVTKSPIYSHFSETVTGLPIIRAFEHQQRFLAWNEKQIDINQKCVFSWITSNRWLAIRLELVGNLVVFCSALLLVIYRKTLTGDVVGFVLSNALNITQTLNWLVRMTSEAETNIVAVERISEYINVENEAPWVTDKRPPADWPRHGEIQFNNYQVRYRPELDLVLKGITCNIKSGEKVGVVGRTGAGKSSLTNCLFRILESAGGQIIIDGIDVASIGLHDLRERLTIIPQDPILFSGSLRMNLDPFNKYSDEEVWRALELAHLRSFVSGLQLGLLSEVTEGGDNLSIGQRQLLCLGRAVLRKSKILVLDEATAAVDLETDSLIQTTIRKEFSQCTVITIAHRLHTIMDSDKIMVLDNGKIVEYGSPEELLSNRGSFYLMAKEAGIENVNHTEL

5-(and-6)-carboxy-2′,7′-dichlorofluorescein [CDCF]
Bile Excretion Index (BEI) (collagen gel sandwich on conventional polystyrene (PS) substrate): about 20% | Bile Excretion Index (BEI) (collagen gel sandwich on gas-permeable PDMS membrane culturing device): about 40%
